According to patent US11766414B2, “Compositions, delivery systems, and methods useful in tumor therapy” (Indi Molecular, Inc., priority 2020, dated 2023):
Read-outs that look alike come from different tables or passages of the source. Starred links: 1 amine or outer side, 2 acyl side, 3 side chain; linkers in the order of their positions; H or OH if unused. Positions of bridges follow the written chain, without caps; N, C: chain ends. Non-standard residues stand in square brackets, D forms with d. Residues, ends and D or L forms follow the SMILES beside them. Triazole bridges read from a SMILES are 1,4-linked. *: point of attachment. DOTA = O=C(O)CN1CCN(CC(=O)O)CCN(CC(=O)*)CCN(CC(=O)O)CC1; Pteroyl = Nc1nc2ncc(CNc3ccc(C(=O)*)cc3)nc2c(=O)[nH]1; Biotin = O=C1N[C@H]2[C@H](CS[C@H]2CCCCC(=O)*)N1; PEG10 = NCCOCCOCCOCCOCCOCCOCCOCCOCCOCCOCCC(=O)O; Lys(N3) = [N-]=[N+]=NCCCC[C@H](N)C(=O)O; γGlu = O=C(O)[C@H](CCC(=O)[*:2])N[*:1]; Pra = C#CC[C@H](N)C(=O)O

Tests used:
FOLR1 [1] = biological target: T1, FOLR1 (Homo sapiens, UniProt P15328); assay: ELISA assay of FOLR1 binding
Excerpt: FIG. 5 is a diagram of ELISA assay of FOLR1 binding of heterobiligands.

[2] = biological target: mouse recombinant FOLR1 (rMuFOLR1) (Mus musculus, UniProt P35846); assay: ELISA cross reactivity with mouse recombinant FOLR1; assay type: binding; conditions: cross reactivity experiment
Excerpt: Further evaluation of the folate-hshta (SEQ ID NO:6) Nterm heterobiligand depended on cross reactivity with mouse recombinant FOLR1 (rMuFOLR1). The heterobiligand binds to both species' variants of FOLR1 with high affinity. This observation was expected given the high homology between the two variants (approximately 92%).

[3] = tested on: OVCAR3 FOLR1+ cells (PC-3 FOLR1− cells as negative line); assay: Flow cytometry binding to FOLR1 (+) and FOLR1 (−) cell lines; assay type: cell-based, human; conditions: OVCAR3 vs PC-3, flow cytometry
Protocol: Both the kyeet (SEQ ID NO:9) and hshta (SEQ ID NO:6)-derived biligands were tested by flow cytometry for binding to FOLR1 (+) and FOLR1 (−) cell lines (FIGS. 6 and 7). The human ovarian adenocarcinoma-derived cell line OVCAR3 has robust FOLR1 expression and was selected as the FOLR1 (+) cell line. The human prostate adenocarcinoma-derived cell line PC-3 was selected as a FOLR1 (−) cell line.

FOLR1 [4] = biological target: T1, FOLR1; assay: Folic acid competition ELISA; assay type: binding
Protocol: A competition experiment was conducted to further understand the binding kinetics of the lead heterobiligand (folate-hshta (SEQ ID NO:6) Nterm heterobiligand).

OVCAR3 cells [5] = assay: Competition at the cellular level with exogenous folic acid (flow cytometry); assay type: cell-based, human
Excerpt: Competition at the cellular level was also probed.

OVCAR3 cells [6] = assay: Cell penetration / internalization assays (acid wash flow cytometry, fluorescence microscopy); assay type: cell-based, human
Protocol: FIG. 10 is a diagram of an assay for assessing cell internalization FOLR1 heterobiligands.
The folate-hshta (SEQ ID NO:6) Nterm heterobiligand was also evaluated in cell penetration imaging assays (FIG. 10). OVCAR3 and PC-3 cells were incubated with the test article at 37° C. for 1 hour. Flow cytometry analysis of the resulting treated cells indicated strong binding to FOLR1 (+) cells. To understand the proportion bound to the surface but not internalized, the cells were briefly washed with acid to liberate the non-internalized peptide.
To further understand intracellular trafficking of the Nterm heterobiligand, these dye-labeled compounds were imaged by fluorescence microscopy. The cells were counterstained with BioTracker 490, which stains membranes, and Rab5a+, an endosomal stain. […] Low levels of DyLight650 was detected within PC-3 (FOLR1−) cells. Taken together, internalization of the heterobiligand appears to be receptor driven and selective for FOLR1 (+) cells.

[7] = human plasma
Protocol: (§1) Plasma was thawed in a 37° C. water bath. Residual clots were removed via centrifugation at 4000 rpm for 5 minutes. The pH of the plasma was adjusted to 7.4 if required. Test articles were diluted to 100 μM by diluting a 1 mM working solution (in DMSO) with 45% methanol in water. To 98 μL of plasma was added 2 μL of the 100 μM solution, resulting in 2 μM final concentration of the test article. Samples were incubated at 37° C. in a water bath. At the indicated time points (0, 10, 30, 60, 120 minutes) 100 μL of 4% H3PO4 was added followed by 800 μL of stop solution (200 ng/mL tolbutamide and 200 ng/mL labetalol in 100% acetonitrile). The samples were centrifuged and the plasma protein-free supernatant (100 μL) was subjected to LC-MS/MS analysis.

[8] = human plasma; remark: listed apart in the source
Protocol: as §1

[9] = mouse
Protocol: as §1

T1 sequence (P15328 25-234): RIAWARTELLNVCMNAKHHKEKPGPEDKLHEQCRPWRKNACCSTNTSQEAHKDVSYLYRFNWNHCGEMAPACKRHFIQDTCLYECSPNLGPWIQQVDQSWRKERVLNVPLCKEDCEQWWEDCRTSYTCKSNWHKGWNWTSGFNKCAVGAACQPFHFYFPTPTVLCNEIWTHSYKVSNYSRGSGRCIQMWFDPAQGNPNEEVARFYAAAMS
mouse recombinant FOLR1 (rMuFOLR1), sequence (P35846 25-232): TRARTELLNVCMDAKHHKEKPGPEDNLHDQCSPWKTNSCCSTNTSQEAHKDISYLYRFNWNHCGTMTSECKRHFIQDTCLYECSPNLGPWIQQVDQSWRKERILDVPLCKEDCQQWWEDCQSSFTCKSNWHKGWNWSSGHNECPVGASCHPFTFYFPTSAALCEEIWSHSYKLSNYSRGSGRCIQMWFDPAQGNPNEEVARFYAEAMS

Compound	greater affinity than folate itself (FOLR1 [1]; ELISA) [fold]	EC50 (FOLR1 [1]; biotin-labeled constructs with MPBA or DOTA tag, read-out: EC50) [nM]	EC50 (FOLR1 [1]; cross reactivity experiment, read-out: Ec50, Human FOLR1) [nM]	EC50 [2] [nM]	binding selectivity for FOLR1 (+) cells over FOLR1 (−) cells [3]	binding affinity of the heterobiligand with folic acid doped in (FOLR1 [4]; folic acid from 0 to 500 nM)	binding of the heterobiligand with folic acid doped in (FOLR1 [4]; folic acid greater than 500 nM)	percentage of OVCAR3 cells binding (OVCAR3 cells [5]; 0.1 μg/mL folate) [%]	percentage of OVCAR3 cells binding (OVCAR3 cells [5]; no folate) [%]	percentage of positively stained cells (OVCAR3 cells [6]; OVCAR3, 37° C. 1 hour, before acid treatment) [%]	percentage of positively stained cells (OVCAR3 cells [6]; OVCAR3, following acid treatment) [%]	half-life [7] [h]	Plasma Stability (t 1/2), Hu [8]	Plasma Stability (t 1/2), Mu [9]
C[C@H](O)[C@H]1NC(=O)[C@@H](Cc2c[nH]cn2)NC(=O)[C@@H](CO)NC(=O)[C@@H](Cc2c[nH]cn2)NC(=O)[C@@H](NC(=O)CC[C@H](NC(=O)c2ccc(NCc3cnc4nc(N)[nH]c(=O)c4n3)cc2)C(=O)O)Cc2cn(nn2)CCCC[C@@H](C(=O)NCCOCCOCCOCCOCCOCCOCCOCCOCCOCCOCCC(=O)NCCOCCOCCOCCOCCOCCOCCOCCOCCOCCOCCC(=O)N[C@@H](CCCCNC(=O)CCCC[C@@H]2SC[C@@H]3NC(=O)N[C@@H]32)C(N)=O)NC(=O)[C@@H](C)NC1=O [Folate-hshta Nterm, Folate-hshta-PEG10-PEG10-K(Biotin)] ({Pteroyl-γGlu}-[Pra][dH][dS][dH][dT][dA][Lys(N3)][PEG10][PEG10]K(Biotin)-NH2; triazole 1-7)	~30	0.065	0.35	0.33	high selectivity	virtually unchanged	partially compete away	57	76.6	73.4	54.2			
C[C@H](O)[C@H]1NC(=O)[C@@H](Cc2cnc[nH]2)NC(=O)[C@@H](CO)NC(=O)[C@@H](Cc2cnc[nH]2)NC(=O)[C@@H](NC(=O)CC[C@H](NC(=O)c2ccc(NCc3cnc4nc(N)[nH]c(=O)c4n3)cc2)C(=O)O)Cc2cn(nn2)CCCC[C@@H](C(=O)NCC(=O)N[C@@H](Cc2ccccc2)C(=O)N[C@@H](CCCCNC(=O)CN2CCN(CC(=O)O)CCN(CC(=O)O)CCN(CC(=O)O)CC2)C(=O)O)NC(=O)[C@@H](C)NC1=O [compound 7327, folate-hshta-Gly-Phe-Lys(DOTA)] ({Pteroyl-γGlu}-[Pra][dH][dS][dH][dT][dA][Lys(N3)]GFK(DOTA)-OH; triazole 1-7)												> 115	Hu: >6937.7 min	Mu: >6937.7 min
